The values that follow come from US20260306503A1, “(S)-2-HYDROXY-6-((4-(2-(2-HYDROXYETHYL)NICOTINOYL)MORPHOLIN-3-YL)METHOXY)BENZALDEHYD FOR USE IN THE TREATMENT OF SICKLE CELL DISEASE” (Global Blood Therapeutics, Inc., priority 2023, published 2026).

The experiment concerns the target T1, hemoglobin (Homo sapiens, UniProt P69905).
T1 construct: whole blood ex vivo
As to the kind of experiment: Hb occupancy calculated from preliminary PK analysis of whole blood samples. The note with it: Patient A, 300 mg QD 14 days then 200 mg QD. It is filed as in vivo. As for the experimental part:
In some embodiments, the therapeutically effective amount is determined by measuring the percent of hemoglobin occupied by the compound, i.e., the percent Hb occupancy. The percent Hb occupancy is a measure of target engagement defined as the percentage of hemoglobin bound by a compound (e.g., Compound I) calculated as the molar concentration of the compound (e.g., Compound I) in RBCs divided by the molar concentration of hemoglobin in RBCs (the mean corpuscular hemoglobin concentration calculated from the hematology panel). The values for concentration of a compound (e.g., Compound I) in RBCs is calculated from the concentrations in whole blood and plasma, and the hematocrit.
In some embodiments, the percent hemoglobin occupancy may be calculated as described herein. In some embodiments, percent hemoglobin occupancy is the molar ratio of Compound I concentration to the Hb concentration in red blood cells.
Some newly enrolled participants in Part A will receive a loading dose regimen of 300 mg of Compound I once daily over the first 14 days. Participants will then receive 200 mg once daily maintenance doses through Week 12.
Based on preliminary pharmacokinetic (PK) analysis of whole blood samples taken from Patient A at day 15 and day 29, Hb occupancy values of 62% and 53%, respectively, were calculated.

T1 sequence (P69905 whole entry): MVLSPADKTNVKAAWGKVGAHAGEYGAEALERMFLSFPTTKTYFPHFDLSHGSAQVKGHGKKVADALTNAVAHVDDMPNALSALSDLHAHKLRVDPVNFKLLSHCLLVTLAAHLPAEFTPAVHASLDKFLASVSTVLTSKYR
T1 sequence (P68871 with tags, fused parts or gaps E7V partner): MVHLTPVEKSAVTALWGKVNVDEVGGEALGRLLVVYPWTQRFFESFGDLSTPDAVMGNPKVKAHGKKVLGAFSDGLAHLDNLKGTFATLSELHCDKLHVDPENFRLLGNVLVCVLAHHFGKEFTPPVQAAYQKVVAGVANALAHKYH

As for `O=Cc1c(O)cccc1OC[C@@H]1COCCN1C(=O)c1cccnc1CCO` [Compound I, (S)-2-hydroxy-6-((4-(2-(2-hydroxyethyl)nicotinoyl)morpholin-3-yl)methoxy)benzaldehyde], the Hb occupancy (day 15, whole blood, 21600 min) is 62% and the Hb occupancy (day 29, whole blood, 41760 min) is 53%.
